Assay results reported in patent US8586533B2, “Treatment of early-stage osteoarthritis” (Kaohsiung Medical University, priority 2008, dated 2013).

Experiments:
[1] = system: human articular chondrocytes; test: TUNEL staining, rate of apoptosis in chondrocyte cultures; type: cell-based; details: azaC plus PTH cultures, 10 nM, 14 days of treatment, P<0.01
Protocol: Chondrocyte cultures were divided into 4 groups.
We measured apoptotic cells using the TUNEL (terminal deoxy-nucleotidyl transferase mediated dUTP nick end labeling) staining method using the In Situ Cell Death Detection Kit, TMR red (Roche, Mannheim, Germany). Following the manufacturer's guidelines, cells were fixed with 4% paraformaldehyde in phosphate buffered saline (PBS) at a cell density of 1×10^6/ml and incubated at room temperature for 10 minutes, and then settled on a slide by centrifugation at a speed of 2,000 rpm for 5 minutes using a cytospin (Cytospin 3; Shandon, Cheshire, UK). Slides were rinsed twice with PBS, and the cells were permeabilized by incubating in permeabilization solution (0.1% Triton X-100 in 0.1% sodium citrate) for 2 minutes on ice. The TUNEL reaction mixture containing terminal deoxynucleotidyl transferase and rhodamine (the labeling dye) was added to the slides and incubated at 37° C. in a humidified chamber in the dark for 60 minutes. The reaction was stopped by a blocking buffer (0.1% Triton X-100/0.5% bovine serum albumin in PBS). Cells were counterstained by 4′,6-diamidino-2-phenylindole (DAPI). The slides were observed under a fluorescence microscope with an excitation wavelength of 580 nm for rhodamine and 365 nm for DAPI. Cell nuclei were stained blue by DAPI, and only apoptotic cells were stained red by rhodamine. Stained cells were counted in 5 microscopic fields (1.566 mm^2/field) on each slide. Data were analyzed using Image-Pro Plus analysis software (Media Cybernetics, Silver Spring, Md.). The rate of apoptosis in chondrocytes was defined as the ratio of red-stained cells (apoptotic cells) to blue-stained cells (total cells).
By using TUNEL staining, the rate of apoptosis in human articular chondrocyte cultures in the control, azaC, and azaC plus PTH groups were compared after 14 days of PTH(1-34) treatment (for the azaC plus PTH group).

rat articular cartilage = test: Papain-induced OA rat model, type II and type X collagen immunohistochemistry; type: in vivo, Sprague-Dawley rats; details: OA plus PTH group, 10 nM intraarticular
Protocol: Fifty-four 12-week-old male Sprague-Dawley rats (250-300 gm) were purchased from BioLASCO Taiwan and housed under standard laboratory conditions (temperature 24° C., 12-hour light-dark cycle) with food and water ad libitum. The animals were acclimatized to the laboratory environment for 1 week before the experiments.
Rats were divided into the following 3 groups: OA (OA induction without PTH [1-34] treatment) (n=18), OA plus PTH (PTH [1-34] treatment followed by OA induction) (n=18), and PTH (PTH [1-34] treatment without OA induction) (n=18). Each left knee, which served as the contralateral control joint, was injected with vehicle without PTH treatment or OA induction. The right knees were the study joints. OA was induced in the right knees of rats in the OA and OA plus PTH groups with intraarticular injections of 20 μl of 4% papain solution and 20 μl of 0.03M cysteine. The injections were given with a 26-gauge needle via the patellar tendon on days 1, 4, and 7 of the experiment (see e.g., Nucl Med Commun (1996) 17(6): 529-35). In the OA plus PTH group, after OA induction, the right knees were injected intraarticularly with 40 μl of 10 nM PTH (1-34) every 3 days until rats were killed. In the PTH group, the same PTH (1-34) treatment was performed but without OA induction. Six rats from each group were killed by CO2 inhalation at the same time points as rats in the OA plus PTH group, in which PTH (1-34) treatment was given for 1, 3, and 5 weeks.
After rats were killed, the knees were harvested, and the tibia plateaus with articular cartilage were collected and fixed with 10% neutral buffered formalin prior to histologic preparation. The samples were then decalcified in 10% formic acid/PBS. The decalcified tibia articular samples were paraffin embedded, and 5-μm microsections in the coronary plane were prepared. GAG was stained with Safranin O-fast green (1% Safranin O counterstained with 0.75% hematoxylin and then 1% fast green) (Sigma, St. Louis Mo.). Localized type II collagen and type X collagen were immunostained. Apoptotic cells in cartilage were TUNEL stained.
The tibia articular sections were rehydrated, and the endogenous peroxidase in tissue was blocked with 3% hydrogen peroxide. Samples were digested by enzymes for epitope retrieval before incubation with primary antibodies (see e.g. J Histochem Cytochem (2002) 50(8): 1049-58). The optimal condition for enzyme digestion for type II collagen immunostaining was a mixture of 2.5% hyaluronidase and 1 mg/ml of Pronase in PBS (pH 7.4; Sigma) at 37° C. for 1 hour. […] The relative density of immunostaining (density/area; mean±SEM area 25.44±2.77 mm^2) was measured using Image-Pro Plus software, version 5.0 (Media Cybernetics).

For “PTH (1-34): 34-amino acid long peptide made up of amino-terminal amino acids 1 through 34 of human parathyroid hormone”, the “rate of apoptosis versus azaC cultures” value [1] was “significantly lower”, the “rate of apoptosis versus control cultures” value [1] was 3.1 fold increase and the “Immunolocalized type X collagen in cartilage compared with OA group” value (rat articular cartilage; 3 and 5 weeks) was “less evident”. The “density of immunolocalized type II collagen versus contralateral control cartilage” value (rat articular cartilage; 3 weeks) was “not different”, the “density of immunolocalized type II collagen versus OA group” value (rat articular cartilage; 3 weeks, P<0.05) was “significantly higher” and the “density of immunolocalized type II collagen versus OA group (P<0.01) and contralateral control (P<0.05)” value (rat articular cartilage; 5 weeks) was “significantly higher”.
